Data published in PMC3479139, “Diverse Small Molecule Inhibitors of Human Apurinic/Apyrimidinic Endonuclease APE1 Identified from a Screen of a Large Public Collection” (PLoS ONE, 2012).
pIC50: −log10 of the molar value.

Tests used:
APE1 [1] = target: T1, APE1 (Homo sapiens, UniProt P27695); test: Gel-based radiotracer (32P) APE1 incision assay; format: biochemical; set-up: concentration or dose not given beside the values; settings: percent incision shown; entries 1-112;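 also: APE1 incision reactions ran 5 min at 37 °C, with cleaved product and intact substrate resolved electrophoretically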
T1 construct: made in house

E. coli Endo IV = target: T2, E. coli Endo IV (Escherichia coli, UniProt P0A6C1); test: E. coli Endo IV profiling counterscreen; format: biochemical; settings: read-out: EndoIV IC50;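 also: selectivity counterscreen of candidate APE1 inhibitors against the bacterial endonuclease Endo IV, run in the same assay format as the primary APE1 high-throughput screen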
T2 construct: made in house
Text: In order to screen out nonselective compounds, such as non-specific DNA binders and inhibitors of related enzymes, we used a miniaturized ThO DNA displacement assay and a counterscreen against the bacterial endonuclease E. coli Endo IV, respectively, following the previously published protocols [21].
To probe the selectivity of the candidate APE1 inhibitors, we tested them against E. coli EndoIV [36], employing the same assay as used in the HTS.

APE1 [2] = target: T1, APE1; test: Fluorogenic kinetic qHTS APE1 incision assay (primary screen and retest of cherrypicked samples); format: biochemical;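 also: purified APE1 cleaving a fluorophore/dark-quencher labelled 17-mer duplex DNA bearing a tetrahydrofuran AP site, fluorescence rise followed kinetically over the first 2 min, inhibition normalized to controls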
Experimental: All screening operations were performed on a fully integrated robotic system (Kalypsys, San Diego, CA) [28] with library plates screened proceeding from the lowest to the highest concentration to minimize compound carryover [26]. Vehicle-only plates, with DMSO being pin-transferred to the entire column 5–48 compound area, were included regularly throughout the screen in order to record any systematic shifts in assay signal. During the screen, reagent bottles were kept at 4°C and all liquid lines were covered with aluminum foil to minimize degradation.
Screening data were corrected and normalized, and concentration–effect relationships was derived using in-house developed algorithms [25].
To screen for inhibitors of APE1 incision activity, we employed a purified-enzyme biochemical assay with a model substrate featuring a red-shifted fluorescent reporter in combination with a dark non-emitting quencher. These moieties were incorporated as end labels onto a 17-mer double-stranded DNA fragment containing a centrally-located tetrahydrofuran AP site sugar mimetic, which serves as the APE1 cleavage site. Upon APE1-catalyzed strand scission immediately 5′ to the AP site analog, the shortened oligodeoxynucleotide carrying the fluorescent reporter spontaneously dissociates from the rest of the substrate, leading to an increase in fluorescence due to its spatial separation from the dark quencher (Figure 1A).
Using a high-speed whole-plate fluorescence imager, the assay data for the entire screen was conducted in kinetic mode, with the APE1 incision reaction being monitored over the initial linear time frame of 2 min (Figure 1B). Thus, any inhibition associated with each sample was computed from the alteration in fluorescence intensity over the time-course measurement period, after normalization against the appropriate controls (Figure 1B, inset).

[3] = target: double-stranded 17-mer DNA fragment; test: ThO (Thiazole Orange) DNA displacement assay; format: binding; settings: read-out: ThO-DNA binding IC50;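 also: miniaturized displacement of the intercalating dye from unlabeled duplex DNA, used to flag nonspecific DNA binders, chiefly intercalators, groove binders may be missed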
APE1 [4] = target: T1, APE1; test: Fluorescence polarization (FP) displacement assay of APE1 binding to AP-DNA probe; settings: read-out: FP IC50;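 also: TAMRA 5′-labeled duplex DNA with THF abasic site (5 nM) and APE1 (20 nM), Mg2+-free buffer, 15 min at room temperature, inhibition seen as lowered polarization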
[5] = initial quantitative high-throughput screen, read-out: APE1 qHTS IC50
[6] = retest of cherrypicked sample, read-out: APE1 Retest IC50

T1 sequence (P27695 whole entry): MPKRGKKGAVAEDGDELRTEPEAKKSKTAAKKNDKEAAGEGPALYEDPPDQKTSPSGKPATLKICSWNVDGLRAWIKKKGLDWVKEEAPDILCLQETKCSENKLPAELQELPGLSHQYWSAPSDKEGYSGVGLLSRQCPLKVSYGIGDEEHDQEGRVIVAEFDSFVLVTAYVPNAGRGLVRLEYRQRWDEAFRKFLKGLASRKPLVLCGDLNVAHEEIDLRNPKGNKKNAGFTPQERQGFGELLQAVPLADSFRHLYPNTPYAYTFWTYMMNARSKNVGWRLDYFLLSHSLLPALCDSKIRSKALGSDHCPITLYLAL

Compound	Radiotracer Assay (%Activity) (APE1 [1]) [%]	pIC50 (E. coli Endo IV)	pIC50 (APE1 [2]; [5])	pIC50 (APE1 [2]; [6])	pIC50 [3]	pIC50 (APE1 [4])
Cc1ccc(NC(=O)CN2C(=O)N/C(=C\c3cccn3-c3cccc(C(=O)O)c3)C2=O)cc1 [MLS000686355]	15	< 4.24	5.46	5.85	< 4.24	4.85
C[C@@]1(C(=O)O)NCCc2cc(O)c(O)cc21 [NCGC00024700]	17.1	< 4.24	5.74		< 4.24	< 4.24
COc1ccc(N2Cc3cccc(C(=O)O)c3C2=O)cc1 [MLS000120697]	37	< 4.24	4.90	5.41	< 4.24	5.10
Cc1cccc(C)c1NC(=O)CSc1nnc(-c2ccco2)c(-c2ccco2)n1 [MLS000556463]	43	< 4.24	4.81	5.44	< 4.24	< 4.24
Cc1cc(/C=C2\C(=O)NC(=O)N(Cc3ccco3)C2=O)c(C)n1-c1ccc(C(=O)O)cc1 [MLS000807042]	33	< 4.24	5.96	4.85	< 4.24	< 4.24
CC(=O)NC1=NC(=O)/C(=C/c2cc(C)n(-c3cccc(C(=O)O)c3)c2C)S1 [MLS000673948]	30	< 4.24	5.46	5.36	< 4.24	< 4.24
CCOC(=O)C1CCN(/C=C2/C(=O)NC(=O)N(Cc3ccco3)C2=O)CC1 [MLS000113273]	3	< 4.24	4.85	5.49	< 4.24	< 4.24
Nc1ccc(Nc2ccccc2)c(S(=O)(=O)O)c1 [MLS000737782]	9	< 4.24	4.85	4.80	< 4.24	< 4.24
O=C(CCCN1C(=O)/C(=C/c2ccco2)SC1=S)Nc1ccccc1C(=O)O [MLS000778775]	3	< 4.24	4.70	4.90	< 4.24	5.30
CCn1c(SCC(=O)O)nc2sc3c(c2c1=O)CCC3 [MLS000069140]	22.3	< 4.24	4.65	4.90	< 4.24	< 4.24
CC(=O)N[C@H]1C(O[C@@H]2O[C@H](C[C@@H](O)[C@H]3O[C@@H](N4CCC(=O)NC4=O)[C@H](O)[C@@H]3O)[C@H](O)[C@H](O)[C@H]2NC(=O)/C=C/CCCCCCCCCCC(C)C)OC(CO)[C@@H](O)[C@@H]1O (stereo partly shown) [NCGC00161652]	26.5	< 4.24	5.10	5.60	< 4.24	4.50
O=C(CSc1nc(-c2ccc(F)cc2)nc2c1Cc1ccccc1O2)Nc1ccc(C(=O)O)cc1 [MLS000673045]	36	4.85	4.90	5.35	5.49	< 4.24
CC(=O)c1ccc(NC(=O)c2ccc3nc(-c4ccco4)c(-c4ccco4)nc3c2)cc1 [MLS000534769]	11	5.00	4.70	5.40	5.05	< 4.24
CC1OC(OCC2OC(Oc3c(-c4ccc(O)cc4)oc4cc(O)cc(O)c4c3=O)C(O)C(O)C2O)C(O)C(O)C1O (stereo not shown) [MLS000876823]	30	< 4.24	5.46	5.51	< 4.24	< 4.24
Cc1c(O)cc2c(c1O)C(=O)CC(c1ccc(O)cc1)O2 (stereo not shown) [MLS000876957]	44	< 4.24	5.80	5.35	< 4.24	< 4.24
CCOC(=O)c1cc(-c2ccc(N3CCOCC3)cc2)nn1-c1ccccc1C(=O)O [MLS000759946]	27	< 4.24	5.60	4.85	< 4.24	4.80
Cc1ccc(NC(=O)CN2C(=O)S/C(=C\c3cccn3-c3cccc(C(=O)O)c3)C2=O)c(C)c1 [MLS000540800]	0	< 4.24	5.05	4.90	< 4.24	4.80
O=C(COC(=O)c1cc2c(s1)CCC2)Nc1ccc(F)cc1 [MLS000334872]	39	< 4.24		5.00	< 4.24	4.90
Cc1cccc(N2NC(=O)/C(=C/c3ccc(-c4ccc(Cl)c(C(=O)O)c4)o3)C2=O)c1 [MLS000621664]	32	< 4.24	4.75	4.90	< 4.24	< 4.24
Nc1ccc2c(c1Cl)C(=O)c1ccc(N)c(Cl)c1C2=O [MLS000737360]	17	< 4.24	5.05	5.20	5.20	5.10
O=C(OCC1O[C@@H](OC(=O)c2cc(O)c(O)c(O)c2)[C@@H](OC(=O)c2cc(O)c(O)c(O)c2)[C@@H](OC(=O)c2cc(O)c(O)c(O)c2)[C@@H]1OC(=O)c1cc(O)c(O)c(O)c1)c1cc(O)c(O)c(O)c1 (stereo partly shown) [MLS000574902]	8	< 4.24	8.00	8.22	5.40	< 4.24
CC1(CC(=O)N/N=C/c2cc([N+](=O)[O-])c(O)cc2O)OCCO1 [MLS000548032]	13	< 4.24	4.85	4.90	< 4.24	< 4.24
O=C(NN1C(=O)/C(=C/C=C/c2ccco2)SC1=S)c1ccncc1 [MLS000762704]	36	< 4.24	5.35	5.35	< 4.24	< 4.24
O=c1c(O)c(Br)ccc2c(Br)c(O)c(O)c(O)c12 [NCGC00160279]	37.9	< 4.24	5.96	6.40	5.90	< 4.24
Cc1ccc(S(=O)(=O)Nc2csc(C)c2C(=O)O)cc1 [MLS000850015]	49	< 4.24	4.95	4.80	< 4.24	< 4.24
COc1ccc2c(c1)c(=O)oc1cc(OCC(=O)NC3CCCCC3)ccc12 [MLS000594161]	38	< 4.24	4.95	5.25	< 4.24	< 4.24
CC(=O)Oc1cc2cccc(OC(C)=O)c(=O)c2c(OC(C)=O)c1OC(C)=O [MLS001049122]	37	< 4.24	6.40	5.20	< 4.24	< 4.24
NC(=O)Cn1c(=O)n(Cc2ccco2)c(=O)c2c3c(sc21)CCCCC3 [MLS000559128]	21	< 4.24	4.50	5.00	< 4.24	5.15
